Results reported in patent publication US11319305B2, “Pyrimidine sulfamide derivative and preparation method and medical application thereof” (SHIJIAZHUANG SAGACITY NEW DRUG DEVELOPMENT CO., LTD., priority 2017, dated 2022).
pIC50: −log10 of the molar value.

Key:
[1] = system: human liver microsomal cytochrome P450 isozyme (CYP1A2, CYP2C9, CYP2C19, CYP2D6 and CYP3A4); assay: Human liver microsomal cytochrome P450 isozyme inhibition assay, summary over the main isozymes; format: in vitro ADME
Experimental: (§1) Experimental Embodiment 4: Human Liver Microsomal Cytochrome P450 Isozyme Inhibition Assay The purpose of the assay was to evaluate the inhibitory activity of the samples against human liver microsomal cytochrome P450 isozyme (CYP1A2, CYP2C9, CYP2C19, CYP2D6 and CYP3A4) using the 5-in-1 probe substrate of the CYP isozyme. Mixed human liver microsomes (HLM) were purchased from Corning Inc. (Steuben, N.Y., USA) and stored below −80° C. before use. The test compound working solution which has been diluted into serial concentrations was added to an incubation system containing human liver microsomes, probe substrates and circulating system cofactors, and a control containing solvent without the test compound was used as the enzyme activity control (100%). The concentration of the metabolite produced by the probe substrate in the sample was determined using a liquid chromatography-tandem mass spectrometry (LC-MS/MS) method. Nonlinear regression analysis was performed on the average percent activity versus concentration of subjects using SigmaPlot (V.11). The IC50 value was calculated by a three-parameter or four-parameter inverse-logarithmic equation.

human ETB receptor = molecular target: T1, human ETB receptor (Homo sapiens, UniProt P24530); assay: In vitro antagonistic effect against human ETB receptor, Ca2+ signal in transfected CHO cells; format: cell-based; conditions: response to 0.3 nM endothelin-1
T1 construct: host or cells: CHO cells
T1 sequence (P24530 27-442): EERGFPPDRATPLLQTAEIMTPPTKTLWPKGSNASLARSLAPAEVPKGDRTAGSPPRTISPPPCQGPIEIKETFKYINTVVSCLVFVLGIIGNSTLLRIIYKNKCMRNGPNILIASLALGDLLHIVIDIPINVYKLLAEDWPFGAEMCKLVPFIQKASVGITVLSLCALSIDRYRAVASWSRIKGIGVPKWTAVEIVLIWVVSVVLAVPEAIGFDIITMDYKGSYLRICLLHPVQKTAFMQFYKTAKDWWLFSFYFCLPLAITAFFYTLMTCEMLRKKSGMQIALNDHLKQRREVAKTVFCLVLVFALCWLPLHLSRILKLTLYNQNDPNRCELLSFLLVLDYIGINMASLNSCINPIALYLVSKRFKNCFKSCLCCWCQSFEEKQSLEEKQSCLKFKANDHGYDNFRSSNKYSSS
Experimental: Antagonist activity of the compound against human ETB receptors expressed in transfected CHO cells was evaluated by measuring the effect of the compound on the changes in the cytoplasmic Ca^2+ ion signal induced by human ETB receptor agonists. The functional activity of the ETB receptor antagonistic effect was tested in Eurofins-Cerep SA according to current standard procedures.
1. Cells were suspended in DMEM buffer (Invitrogen) and then distributed in 384-well plate (100 μL/well) at a density of 3×10^4 cells/well;
(§2) 2. Probenecid in HBSS buffer (Invitrogen) supplemented with 20 mM Hepes (Invitrogen) (pH 7.4) was mixed with fluorescent probe (Fluo4 NW, Invitrogen), the mixture was added to each wells, then balanced with cells at 37° C. for 60 minutes, and then balanced with cells at 22° C. for 15 minutes;
(§3) 3. The test plate was placed in a microplate reader (CellLux, PerkinElmer), a DMSO solution or HBSS buffer with an appropriate concentration of the test compound and the positive control was added, and 0.3 nM endothelin-1 or HBSS buffer (base control) was added after 5 minutes, and then the change in fluorescence intensity proportional to the concentration of Ca^2+ ions of […] was measured;
4. Results were shown as the percent inhibition of control response to 0.3 nM endothelin-1;
5. Standard positive control was BQ-788, several concentrations were tested in each experiments. The data was analyzed using Prism to generate a concentration-response curve, and IC50 values of the compounds were calculated.

CYP1A2 = molecular target: T2, CYP1A2 (Homo sapiens, UniProt P05177); assay: Human liver microsomal cytochrome P450 isozyme inhibition assay, CYP1A2; format: in vitro ADME; conditions: human liver microsomes
T2 construct: Mixed human liver microsomes (HLM) were purchased from Corning Inc; tissue Corning Inc; host or cells: pooled human liver microsomes
T2 sequence (P05177 1-516): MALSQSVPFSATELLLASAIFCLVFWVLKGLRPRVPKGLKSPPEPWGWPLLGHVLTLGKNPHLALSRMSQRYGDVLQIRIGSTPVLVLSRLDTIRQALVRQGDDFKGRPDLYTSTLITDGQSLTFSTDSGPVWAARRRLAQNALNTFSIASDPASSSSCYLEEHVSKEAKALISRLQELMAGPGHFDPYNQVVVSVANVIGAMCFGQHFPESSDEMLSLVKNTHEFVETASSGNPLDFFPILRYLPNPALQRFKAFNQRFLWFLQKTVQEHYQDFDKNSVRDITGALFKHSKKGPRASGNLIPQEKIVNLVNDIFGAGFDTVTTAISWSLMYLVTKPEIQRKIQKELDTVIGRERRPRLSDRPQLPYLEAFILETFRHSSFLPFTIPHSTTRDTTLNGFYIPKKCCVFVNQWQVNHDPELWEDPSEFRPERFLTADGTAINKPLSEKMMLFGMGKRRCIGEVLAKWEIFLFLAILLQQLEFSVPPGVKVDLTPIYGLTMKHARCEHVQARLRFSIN
Experimental: as §1

human ETA receptor = molecular target: T3, human ETA receptor (Homo sapiens, UniProt P25101); assay: In vitro antagonistic effect against human ETA receptor, Ca2+ signal in SK-N-MC cells; format: cell-based; conditions: for pIC50: SK-N-MC cells, response to 1 nM endothelin-1; for ETA/ETB selectivity: ratio of ETB IC50 to ETA IC50
T3 construct: endogenously expressed human ETA receptors in SK-N-MC cells; host or cells: SK-N-MC cells
T3 sequence (P25101 21-427): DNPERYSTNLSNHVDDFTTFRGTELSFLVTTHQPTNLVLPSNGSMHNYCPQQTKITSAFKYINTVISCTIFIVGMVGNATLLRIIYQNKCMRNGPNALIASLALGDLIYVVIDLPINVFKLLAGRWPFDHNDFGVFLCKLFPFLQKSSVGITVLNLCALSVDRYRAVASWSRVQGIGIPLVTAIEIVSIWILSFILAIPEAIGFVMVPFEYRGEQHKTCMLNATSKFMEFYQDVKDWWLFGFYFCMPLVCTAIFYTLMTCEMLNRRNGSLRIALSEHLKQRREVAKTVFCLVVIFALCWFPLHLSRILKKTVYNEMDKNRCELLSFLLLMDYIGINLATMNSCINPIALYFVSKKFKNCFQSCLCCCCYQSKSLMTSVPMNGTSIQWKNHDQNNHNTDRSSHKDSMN
Experimental: Experimental Embodiment 1: In Vitro Test of Antagonistic Effect Against Human ETA Receptor
Antagonistic activity of the compounds against endogenously expressed human ETA receptors in SK-N-MC cells was evaluated by measuring the effect of compounds on the changes in cytoplasmic Ca^2+ ion signal induced by human ETA receptor agonists using fluorescence detection methods. The functional activity of the ETA receptor antagonistic effect was tested in Eurofins-Cerep SA according to current standard procedures.
1. Cells were suspended in Dulbecco's modified Eagle medium solution (DMEM, Invitrogen) supplemented with 1% FCSd, then distributed in 384-well plate (100 μL/well) at a density of 5×10^4 cells/well;
as §2, with “Hank's balanced salt solution (HBSS, Invitrogen)” for “HBSS buffer (Invitrogen)”, “4-(2-hydroxyethyl)piperazine-1-ethanesulfonic acid (Hepes, Invitrogen)” for “Hepes (Invitrogen)”
as §3, with “1” for “0.3”
5. Standard positive control was BQ-123, several concentrations were tested in each experiments. The data was analyzed using Prism to generate a concentration-response curve, and IC50 values of the compounds were calculated.

CYP2D6 = molecular target: T4, CYP2D6 (Homo sapiens, UniProt P10635); assay: Human liver microsomal cytochrome P450 isozyme inhibition assay, CYP2D6; format: in vitro ADME; conditions: human liver microsomes
T4 construct: Mixed human liver microsomes (HLM) were purchased from Corning Inc; tissue Corning Inc; host or cells: pooled human liver microsomes
T4 sequence (P10635 whole entry): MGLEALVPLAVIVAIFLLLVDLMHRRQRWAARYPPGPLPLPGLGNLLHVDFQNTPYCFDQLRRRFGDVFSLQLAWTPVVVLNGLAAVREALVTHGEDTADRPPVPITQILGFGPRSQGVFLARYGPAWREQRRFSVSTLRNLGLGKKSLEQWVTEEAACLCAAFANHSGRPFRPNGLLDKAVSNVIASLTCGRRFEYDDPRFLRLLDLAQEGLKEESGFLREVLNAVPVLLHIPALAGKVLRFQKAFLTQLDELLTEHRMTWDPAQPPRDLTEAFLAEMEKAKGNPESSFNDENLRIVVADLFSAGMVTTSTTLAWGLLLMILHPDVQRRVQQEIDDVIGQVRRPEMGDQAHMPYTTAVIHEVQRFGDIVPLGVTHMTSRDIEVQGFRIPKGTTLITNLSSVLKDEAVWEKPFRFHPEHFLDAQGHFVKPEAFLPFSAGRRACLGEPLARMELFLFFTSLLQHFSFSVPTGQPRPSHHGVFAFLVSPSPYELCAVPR
Experimental: as §1

CYP3A4 = molecular target: T5, CYP3A4 (Homo sapiens, UniProt P08684); assay: Human liver microsomal cytochrome P450 isozyme inhibition assay, CYP3A4; format: in vitro ADME; conditions: human liver microsomes
T5 construct: Mixed human liver microsomes (HLM) were purchased from Corning Inc; tissue Corning Inc; host or cells: pooled human liver microsomes
T5 sequence (P08684 whole entry): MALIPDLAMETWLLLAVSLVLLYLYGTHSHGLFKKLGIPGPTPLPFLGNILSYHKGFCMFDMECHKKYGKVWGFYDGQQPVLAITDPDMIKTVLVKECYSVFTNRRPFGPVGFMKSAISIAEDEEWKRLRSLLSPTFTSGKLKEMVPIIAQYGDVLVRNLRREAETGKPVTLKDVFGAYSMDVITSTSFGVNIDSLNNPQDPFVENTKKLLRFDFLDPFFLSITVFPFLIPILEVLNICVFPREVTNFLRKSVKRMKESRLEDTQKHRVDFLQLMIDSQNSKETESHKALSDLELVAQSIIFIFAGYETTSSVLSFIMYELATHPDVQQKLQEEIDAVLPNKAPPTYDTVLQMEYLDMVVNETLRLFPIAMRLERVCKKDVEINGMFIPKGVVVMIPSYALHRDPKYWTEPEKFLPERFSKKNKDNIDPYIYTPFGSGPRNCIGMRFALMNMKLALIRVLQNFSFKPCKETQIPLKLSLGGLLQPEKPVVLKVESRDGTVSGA
Experimental: as §1

CYP2C9 = molecular target: T6, CYP2C9 (Homo sapiens, UniProt P11712); assay: Human liver microsomal cytochrome P450 isozyme inhibition assay, CYP2C9; format: in vitro ADME; conditions: human liver microsomes
T6 construct: Mixed human liver microsomes (HLM) were purchased from Corning Inc; tissue Corning Inc; host or cells: pooled human liver microsomes
T6 sequence (P11712 whole entry): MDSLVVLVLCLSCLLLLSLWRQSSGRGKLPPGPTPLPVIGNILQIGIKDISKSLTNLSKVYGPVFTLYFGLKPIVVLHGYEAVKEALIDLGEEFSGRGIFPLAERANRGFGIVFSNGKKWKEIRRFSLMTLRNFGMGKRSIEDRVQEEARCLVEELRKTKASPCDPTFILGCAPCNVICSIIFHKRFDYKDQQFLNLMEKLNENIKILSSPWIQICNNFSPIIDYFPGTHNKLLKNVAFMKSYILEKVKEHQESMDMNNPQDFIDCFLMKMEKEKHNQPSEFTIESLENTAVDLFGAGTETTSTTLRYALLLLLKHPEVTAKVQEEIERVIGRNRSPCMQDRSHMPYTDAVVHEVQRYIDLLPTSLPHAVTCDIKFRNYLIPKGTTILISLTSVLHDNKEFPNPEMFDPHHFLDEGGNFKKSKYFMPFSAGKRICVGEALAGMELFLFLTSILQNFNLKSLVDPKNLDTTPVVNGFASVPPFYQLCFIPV
Experimental: as §1

CYP2C19 = molecular target: T7, CYP2C19 (Homo sapiens, UniProt P33261); assay: Human liver microsomal cytochrome P450 isozyme inhibition assay, CYP2C19; format: in vitro ADME; conditions: human liver microsomes
T7 construct: Mixed human liver microsomes (HLM) were purchased from Corning Inc; tissue Corning Inc; host or cells: pooled human liver microsomes
T7 sequence (P33261 whole entry): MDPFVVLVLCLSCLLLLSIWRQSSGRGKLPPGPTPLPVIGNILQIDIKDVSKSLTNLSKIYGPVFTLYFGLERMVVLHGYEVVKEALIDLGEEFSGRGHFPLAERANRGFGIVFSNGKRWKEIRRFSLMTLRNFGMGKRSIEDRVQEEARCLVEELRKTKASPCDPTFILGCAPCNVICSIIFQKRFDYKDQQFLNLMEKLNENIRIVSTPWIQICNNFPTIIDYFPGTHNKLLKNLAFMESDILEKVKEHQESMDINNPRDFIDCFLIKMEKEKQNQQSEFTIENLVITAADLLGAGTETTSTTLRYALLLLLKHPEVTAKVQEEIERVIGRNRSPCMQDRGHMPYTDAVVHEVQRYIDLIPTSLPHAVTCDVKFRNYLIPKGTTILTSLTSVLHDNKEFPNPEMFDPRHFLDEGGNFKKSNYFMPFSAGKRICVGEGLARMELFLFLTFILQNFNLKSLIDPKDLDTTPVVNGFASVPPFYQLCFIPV
Experimental: as §1

inhibitory effects on five main isozymes of CYP (in words) [1]	pIC50 (human ETB receptor)	pIC50 (CYP1A2)	pIC50 (human ETA receptor)	ETA/ETB selectivity (human ETA receptor)	pIC50 (CYP2D6)	pIC50 (CYP3A4)	pIC50 (CYP2C9)	pIC50 (CYP2C19)	Structure (SMILES)
very weak	3.96	< 4.30	8.85	78500	< 4.30	< 4.30	< 4.30	< 4.30	O=S(=O)(NCC1CC1)Nc1ncnc(OCCOc2ncc(Br)cn2)c1-c1ccc2scnc2c1 [WX005]
very weak	4.21	< 4.30	8.51	19600	< 4.30	< 4.30	4.46	< 4.30	CCCNS(=O)(=O)Nc1ncnc(OCCOc2ncc(Br)cn2)c1-c1ccc2ccnn2c1 [WX025]
